From ChEMBL document CHEMBL2434896, “Carbonic anhydrase inhibitors. Synthesis of heterocyclic 4-substituted pyridine-3-sulfonamide derivatives and their inhibition of the human cytosolic isozymes I and II and transmembrane tumor-associated isozymes IX and XII” (Eur J Med Chem, 2013)
Activity calls are given as the source filed them. The calls are words filed in the database; no cut-off is given here.

Tests used:
NCI-H322M = test: Growth inhibition of human NCI-H322M cells at 10 uM after 48 hrs by sulforhodamine B assay; type: functional; details: read-out: GI
786-0 = test: Growth inhibition of human 786-0 cells at 10 uM after 48 hrs by sulforhodamine B assay; type: functional
M14 = test: Growth inhibition of human M14 cells at 10 uM after 48 hrs by sulforhodamine B assay; type: functional
SR = test: Growth inhibition of human SR cells at 10 uM after 48 hrs by sulforhodamine B assay; type: functional
SNB-75 = test: Growth inhibition of human SNB75 cells at 10 uM after 48 hrs by sulforhodamine B assay; type: functional
K562 = test: Growth inhibition of human K562 cells at 10 uM after 48 hrs by sulforhodamine B assay; type: functional
SNB-19 = test: Growth inhibition of human SNB19 cells at 10 uM after 48 hrs by sulforhodamine B assay; type: functional
Carbonic anhydrase 9 = Carbonic anhydrase 9 (Homo sapiens, UniProt Q16790); test: Inhibition of human carbonic anhydrase 9 after 15 mins by stopped flow CO2 hydration assay
HOP-62 = test: Growth inhibition of human HOP62 cells at 10 uM after 48 hrs by sulforhodamine B assay; type: functional
UACC-257 = test: Growth inhibition of human UACC257 cells at 10 uM after 48 hrs by sulforhodamine B assay; type: functional
NCI-H460 = test: Growth inhibition of human NCI-H460 cells at 10 uM after 48 hrs by sulforhodamine B assay; type: functional
A549 = test: Growth inhibition of human A549/ATCC cells at 10 uM after 48 hrs by sulforhodamine B assay; type: functional; details: A549, 48 h, read-out: GI
ACHN = test: Growth inhibition of human ACHN cells at 10 uM after 48 hrs by sulforhodamine B assay; type: functional
A498 = test: Growth inhibition of human A498 cells at 10 uM after 48 hrs by sulforhodamine B assay; type: functional
MOLT-4 = test: Growth inhibition of human MOLT4 cells at 10 uM after 48 hrs by sulforhodamine B assay; type: functional; details: MOLT-4, 48 h, read-out: GI
SK-OV-3 = test: Growth inhibition of human SKOV3 cells at 10 uM after 48 hrs by sulforhodamine B assay; type: functional; details: SK-OV-3, 48 h, read-out: GI
IGROV-1 = test: Growth inhibition of human IGROV1 cells at 10 uM after 48 hrs by sulforhodamine B assay; type: functional; details: IGROV-1, 48 h, read-out: GI
COLO 205 = test: Growth inhibition of human COLO205 cells at 10 uM after 48 hrs by sulforhodamine B assay; type: functional; details: COLO 205, 48 h, read-out: GI
MDA-MB-435 = test: Growth inhibition of human MDA-MB-435 cells at 10 uM after 48 hrs by sulforhodamine B assay; type: functional
CAKI-1 = test: Growth inhibition of human CAKI-1 cells at 10 uM after 48 hrs by sulforhodamine B assay; type: functional; details: CAKI-1, 48 h, read-out: GI
HT-29 = test: Growth inhibition of human HT-29 cells at 10 uM after 48 hrs by sulforhodamine B assay; type: functional; details: HT-29, 48 h, read-out: GI
Hs-578T = test: Growth inhibition of human Hs 578T cells at 10 uM after 48 hrs by sulforhodamine B assay; type: functional
UO-31 = test: Growth inhibition of human UO31 cells at 10 uM after 48 hrs by sulforhodamine B assay; type: functional; details: UO-31, 48 h, read-out: GI
HL-60(TB) = test: Growth inhibition of human HL-60(TB) cells at 10 uM after 48 hrs by sulforhodamine B assay; type: functional
Malme-3M = test: Growth inhibition of human MALME-3M cells at 10 uM after 48 hrs by sulforhodamine B assay; type: functional; details: read-out: GI
SK-MEL-5 = test: Growth inhibition of human SK-MEL-5 cells at 10 uM after 48 hrs by sulforhodamine B assay; type: functional; details: SK-MEL-5, 48 h, read-out: GI
CCRF-CEM = test: Growth inhibition of human CCRF-CEM cells at 10 uM after 48 hrs by sulforhodamine B assay; type: functional; details: read-out: GI
OVCAR-8 = test: Growth inhibition of human OVCAR8 cells at 10 uM after 48 hrs by sulforhodamine B assay; type: functional
OVCAR-3 = test: Growth inhibition of human OVCAR3 cells at 10 uM after 48 hrs by sulforhodamine B assay; type: functional
UACC-62 = test: Growth inhibition of human UACC62 cells at 10 uM after 48 hrs by sulforhodamine B assay; type: functional
SF-268 = test: Growth inhibition of human SF268 cells at 10 uM after 48 hrs by sulforhodamine B assay; type: functional
RPMI-8226 = test: Growth inhibition of human RPMI8226 cells at 10 uM after 48 hrs by sulforhodamine B assay; type: functional; details: RPMI-8226, 48 h, read-out: GI
SK-MEL-2 = test: Growth inhibition of human SK-MEL-2 cells at 10 uM after 48 hrs by sulforhodamine B assay; type: functional
SF-295 = test: Growth inhibition of human SF295 cells at 10 uM after 48 hrs by sulforhodamine B assay; type: functional; details: SF-295, 48 h, read-out: GI
TK-10 = test: Growth inhibition of human TK10 cells at 10 uM after 48 hrs by sulforhodamine B assay; type: functional; details: TK-10, 48 h, read-out: GI
SF-539 = test: Growth inhibition of human SF539 cells at 10 uM after 48 hrs by sulforhodamine B assay; type: functional; details: SF-539, 48 h, read-out: GI
HCC 2998 = test: Growth inhibition of human HCC2998 cells at 10 uM after 48 hrs by sulforhodamine B assay; type: functional
MDA-MB-231 = test: Growth inhibition of human MDA-MB-231 cells at 10 uM after 48 hrs by sulforhodamine B assay; type: functional
NCI/ADR-RES = test: Growth inhibition of human NCI-ADR-RES cells at 10 uM after 48 hrs by sulforhodamine B assay; type: functional
T47D = test: Growth inhibition of human T47D cells at 10 uM after 48 hrs by sulforhodamine B assay; type: functional; details: read-out: GI
OVCAR-4 = test: Growth inhibition of human OVCAR4 cells at 10 uM after 48 hrs by sulforhodamine B assay; type: functional
HCT-116 = test: Growth inhibition of human HCT116 cells at 10 uM after 48 hrs by sulforhodamine B assay; type: functional
OVCAR-5 = test: Growth inhibition of human OVCAR5 cells at 10 uM after 48 hrs by sulforhodamine B assay; type: functional; details: OVCAR-5, 48 h, read-out: GI
MCF7 = test: Growth inhibition of human MCF7 cells at 10 uM after 48 hrs by sulforhodamine B assay; type: functional
PC-3 = test: Growth inhibition of human PC3 cells at 10 uM after 48 hrs by sulforhodamine B assay; type: functional; details: PC-3, 48 h, read-out: GI
NCI-H522 = test: Growth inhibition of human NCI-H522 cells at 10 uM after 48 hrs by sulforhodamine B assay; type: functional
NCI-H226 = test: Growth inhibition of human NCI-H226 cells at 10 uM after 48 hrs by sulforhodamine B assay; type: functional
NCI-H23 = test: Growth inhibition of human NCI-H23 cells at 10 uM after 48 hrs by sulforhodamine B assay; type: functional
U-251 = test: Growth inhibition of human U251 cells at 10 uM after 48 hrs by sulforhodamine B assay; type: functional; details: U-251, 48 h, read-out: GI
LOX IMVI = test: Growth inhibition of human LOXIMVI cells at 10 uM after 48 hrs by sulforhodamine B assay; type: functional; details: read-out: GI
KM12 = test: Growth inhibition of human KM12 cells at 10 uM after 48 hrs by sulforhodamine B assay; type: functional
SK-MEL-28 = test: Growth inhibition of human SK-MEL-28 cells at 10 uM after 48 hrs by sulforhodamine B assay; type: functional, cell-based
DU-145 = test: Growth inhibition of human DU145 cells at 10 uM after 48 hrs by sulforhodamine B assay; type: functional
SW-620 = test: Growth inhibition of human SW620 cells at 10 uM after 48 hrs by sulforhodamine B assay; type: functional
HCT-15 = test: Growth inhibition of human HCT15 cells at 10 uM after 48 hrs by sulforhodamine B assay; type: functional
[1] = Growth inhibition of human EKVX cells at 10 uM after 48 hrs by sulforhodamine B assay; type: functional; details: read-out: GI
BT-549 = test: Growth inhibition of human BT549 cells at 10 uM after 48 hrs by sulforhodamine B assay; type: functional
SN12C = test: Growth inhibition of human SN12C cells at 10 uM after 48 hrs by sulforhodamine B assay; type: functional

## CCCCc1c(C)nn(-c2ccncc2S(N)(=O)=O)c1C
NCI-H322M
  inhibition of growth at 10 µM: 7%
786-0
  growth inhibition (GI): inactive
M14
  growth inhibition (GI): inactive
SR
  growth inhibition (GI): inactive
SNB-75
  growth inhibition (GI): inactive
K562
  growth inhibition (GI): inactive
SNB-19
  growth inhibition (GI): inactive
Carbonic anhydrase 9
  Ki: 48.6 nM
HOP-62
  growth inhibition (GI): inactive
UACC-257
  growth inhibition (GI): inactive
NCI-H460
  growth inhibition (GI): inactive
A549
  inhibition of growth at 10 µM: 17%
ACHN
  growth inhibition (GI): inactive
A498
  growth inhibition (GI): inactive
MOLT-4
  inhibition of growth at 10 µM: 17%
SK-OV-3
  inhibition of growth at 10 µM: 2%
IGROV-1
  inhibition of growth at 10 µM: 3%
COLO 205
  inhibition of growth at 10 µM: 1%
MDA-MB-435
  growth inhibition (GI): inactive
CAKI-1
  inhibition of growth at 10 µM: 5%
HT-29
  inhibition of growth at 10 µM: 15%
Hs-578T
  growth inhibition (GI): inactive
UO-31
  inhibition of growth at 10 µM: 23%
HL-60(TB)
  growth inhibition (GI): inactive
Malme-3M
  inhibition of growth at 10 µM: 13%
SK-MEL-5
  inhibition of growth at 10 µM: 16%
CCRF-CEM
  inhibition of growth at 10 µM: 8%
OVCAR-8
  growth inhibition (GI): inactive
OVCAR-3
  growth inhibition (GI): inactive
UACC-62
  growth inhibition (GI): inactive
SF-268
  growth inhibition (GI): inactive
RPMI-8226
  inhibition of growth at 10 µM: 27%
SK-MEL-2
  growth inhibition (GI): inactive
SF-295
  inhibition of growth at 10 µM: 8%
TK-10
  inhibition of growth at 10 µM: 9%
SF-539
  inhibition of growth at 10 µM: 3%
HCC 2998
  growth inhibition (GI): inactive
MDA-MB-231
  growth inhibition (GI): inactive
NCI/ADR-RES
  growth inhibition (GI): inactive
T47D
  inhibition of growth at 10 µM: 11%
OVCAR-4
  growth inhibition (GI): inactive
HCT-116
  growth inhibition (GI): inactive
OVCAR-5
  inhibition of growth at 10 µM: 8%
MCF7
  growth inhibition (GI): inactive
PC-3
  inhibition of growth at 10 µM: 8%
NCI-H522
  growth inhibition (GI): inactive
NCI-H226
  growth inhibition (GI): inactive
NCI-H23
  growth inhibition (GI): inactive
U-251
  inhibition of growth at 10 µM: 8%
LOX IMVI
  inhibition of growth at 10 µM: 2%
KM12
  growth inhibition (GI): inactive
SK-MEL-28
  growth inhibition (GI): inactive
DU-145
  growth inhibition (GI): inactive
SW-620
  growth inhibition (GI): inactive
HCT-15
  growth inhibition (GI): inactive
[1]
  inhibition of growth at 10 µM: 6%
BT-549
  growth inhibition (GI): inactive
SN12C
  growth inhibition (GI): inactive
